Measurements taken from ChEMBL document CHEMBL3885881, “DrugMatrix”.

Organism: Rattus norvegicus
Assay: DrugMatrix - Regimen: Daily Repeat
Assay type: toxicity, organism-based, Sprague-Dawley
Parameters: regimen Daily Repeat, gender Male, age 6-8 weeks
Conditions: in vivo, po, route oral GAVAGE, vehicle .5 % CMC; for ABSOLUTE BASOPHIL / ABSOLUTE EOSINOPHIL / ABSOLUTE LYMPHOCYTE / ABSOLUTE MONOCYTE / ABSOLUTE SEGMENTED NEUTROPHIL / BASOPHIL / EOSINOPHIL / ERYTHROCYTE COUNT / HEMATOCRIT / HEMOGLOBIN / LEUKOCYTE COUNT / LYMPHOCYTE / MEAN CORPUSCULAR HEMOGLOBIN / MEAN CORPUSCULAR HEMOGLOBIN CONCENTRATION / MEAN CORPUSCULAR VOLUME / MONOCYTE / NEUTROPHIL / NUCLEATED RED BLOOD CELLS / PLATELET COUNT: tissue Blood; for ALANINE AMINOTRANSFERASE / ALBUMIN / ALKALINE PHOSPHATASE / ASPARTATE AMINOTRANSFERASE / BLOOD UREA NITROGEN / CARBON DIOXIDE / CHLORIDE / CHOLESTEROL / CREATINE PHOSPHOKINASE / CREATININE / GLUCOSE / LACTATE DEHYDROGENASE / LIPASE / PHOSPHORUS / POTASSIUM / SODIUM / TOTAL BILIRUBIN / TOTAL PROTEIN / URIC ACID: tissue Plasma
[1] = 0 mg/kg, 72 h, dose level Control, time 3 day
[2] = 0 mg/kg, 120 h, dose level Control, time 5 day
[3] = 3 mg/kg, 72 h, dose level Low, time 3 day

## COc1nc(C)nc(Cl)c1N=C1NCCN1 [MOXONIDINE]
[1]
  ABSOLUTE BASOPHIL: 0 CELLS/uL
  ABSOLUTE EOSINOPHIL: 47.67 CELLS/uL
  ABSOLUTE LYMPHOCYTE: 15937.67 CELLS/uL
  ABSOLUTE MONOCYTE: 138.33 CELLS/uL
  ABSOLUTE SEGMENTED NEUTROPHIL: 1443 CELLS/uL
  BASOPHIL: 0%
  EOSINOPHIL: 0.33%
  ERYTHROCYTE COUNT: 5.45 x10E6/uL
  HEMATOCRIT: 34.43%
  HEMOGLOBIN: 13.38 G/DL
  LEUKOCYTE COUNT: 17.57 x10E3/uL
  LYMPHOCYTE: 90.33%
  MEAN CORPUSCULAR HEMOGLOBIN: 24.6 pg
  MEAN CORPUSCULAR HEMOGLOBIN CONCENTRATION: 38.88 G/DL
  MEAN CORPUSCULAR VOLUME: 63.27 fL
  MONOCYTE: 0.83%
  NEUTROPHIL: 8.5%
  NUCLEATED RED BLOOD CELLS: 0 /100WBC
  PLATELET COUNT: 1298 x10E3/uL
  ALANINE AMINOTRANSFERASE: 47.67 u/L
  ALBUMIN: 4.18 G/DL
  ALKALINE PHOSPHATASE: 398.5 u/L
  ASPARTATE AMINOTRANSFERASE: 93.17 u/L
  BLOOD UREA NITROGEN: 16 mg/dL
  CARBON DIOXIDE: 29.17 mmol/L
  CHLORIDE: 98.17 MEQ/L
  CHOLESTEROL: 68.83 mg/dL
  CREATINE PHOSPHOKINASE: 467.33 u/L
  CREATININE: 0.14 mg/dL
  GLUCOSE: 151.67 mg/dL
  LACTATE DEHYDROGENASE: 597.5 u/L
  LIPASE: 9.33 u/L
  PHOSPHORUS: 11.97 mg/dL
  POTASSIUM: 6.43 MEQ/L
  SODIUM: 140.68 MEQ/L
  TOTAL BILIRUBIN: 0.18 mg/dL
  TOTAL PROTEIN: 5.82 G/DL
  URIC ACID: 1.48 mg/dL
[2]
  ABSOLUTE BASOPHIL: 0 CELLS/uL
  ABSOLUTE EOSINOPHIL: 31 CELLS/uL
  ABSOLUTE LYMPHOCYTE: 14327.83 CELLS/uL
  ABSOLUTE MONOCYTE: 102.83 CELLS/uL
  ABSOLUTE SEGMENTED NEUTROPHIL: 1321.67 CELLS/uL
  BASOPHIL: 0%
  EOSINOPHIL: 0.17%
  ERYTHROCYTE COUNT: 5.79 x10E6/uL
  HEMATOCRIT: 36.1%
  HEMOGLOBIN: 14.15 G/DL
  LEUKOCYTE COUNT: 15.78 x10E3/uL
  LYMPHOCYTE: 90.5%
  MEAN CORPUSCULAR HEMOGLOBIN: 24.48 pg
  MEAN CORPUSCULAR HEMOGLOBIN CONCENTRATION: 39.22 G/DL
  MEAN CORPUSCULAR VOLUME: 62.4 fL
  MONOCYTE: 0.67%
  NEUTROPHIL: 8.67%
  NUCLEATED RED BLOOD CELLS: 0.17 /100WBC
  PLATELET COUNT: 1211.67 x10E3/uL
  ALANINE AMINOTRANSFERASE: 49 u/L
  ALBUMIN: 4.27 G/DL
  ALKALINE PHOSPHATASE: 356.67 u/L
  ASPARTATE AMINOTRANSFERASE: 90.17 u/L
  BLOOD UREA NITROGEN: 20.5 mg/dL
  CARBON DIOXIDE: 29.17 mmol/L
  CHLORIDE: 98 MEQ/L
  CHOLESTEROL: 69.83 mg/dL
  CREATINE PHOSPHOKINASE: 312 u/L
  CREATININE: 0.21 mg/dL
  GLUCOSE: 149.83 mg/dL
  LACTATE DEHYDROGENASE: 322 u/L
  LIPASE: 10 u/L
  PHOSPHORUS: 12 mg/dL
  POTASSIUM: 6.75 MEQ/L
  SODIUM: 142.8 MEQ/L
  TOTAL BILIRUBIN: 0.17 mg/dL
  TOTAL PROTEIN: 6.1 G/DL
  URIC ACID: 1.68 mg/dL
[3]
  ABSOLUTE BASOPHIL: 0 CELLS/uL
  ABSOLUTE EOSINOPHIL: 88 CELLS/uL
  ABSOLUTE LYMPHOCYTE: 13570 CELLS/uL
  ABSOLUTE MONOCYTE: 44 CELLS/uL
  ABSOLUTE SEGMENTED NEUTROPHIL: 1298 CELLS/uL
  BASOPHIL: 0%
  EOSINOPHIL: 0.67%
  ERYTHROCYTE COUNT: 5.63 x10E6/uL
  HEMATOCRIT: 34.87%
  HEMOGLOBIN: 13.07 G/DL
  LEUKOCYTE COUNT: 15 x10E3/uL
  LYMPHOCYTE: 89.67%
  MEAN CORPUSCULAR HEMOGLOBIN: 23.2 pg
  MEAN CORPUSCULAR HEMOGLOBIN CONCENTRATION: 37.5 G/DL
  MEAN CORPUSCULAR VOLUME: 61.9 fL
  MONOCYTE: 0.33%
  NEUTROPHIL: 9.33%
  NUCLEATED RED BLOOD CELLS: 0 /100WBC
  PLATELET COUNT: 1254.67 x10E3/uL
  ALANINE AMINOTRANSFERASE: 48 u/L
  ALBUMIN: 4 G/DL
  ALKALINE PHOSPHATASE: 327.67 u/L
  ASPARTATE AMINOTRANSFERASE: 95 u/L
  BLOOD UREA NITROGEN: 17 mg/dL
  CARBON DIOXIDE: 29 mmol/L
  CHLORIDE: 99.33 MEQ/L
  CHOLESTEROL: 69.67 mg/dL
  CREATINE PHOSPHOKINASE: 328.67 u/L
  CREATININE: 0.17 mg/dL
  GLUCOSE: 144 mg/dL
  LACTATE DEHYDROGENASE: 269.67 u/L
  LIPASE: 10.33 u/L
  PHOSPHORUS: 12.07 mg/dL
  POTASSIUM: 5.9 MEQ/L
  SODIUM: 142.9 MEQ/L
  TOTAL BILIRUBIN: 0.23 mg/dL
  TOTAL PROTEIN: 5.53 G/DL
  URIC ACID: 1.4 mg/dL
